Measured values: publication PMC6977461 (Chemical Science, 2019)

Target: T1, mouse GLP-1 receptor (Mus musculus, UniProt O35659)
T1 construct: βTC6 cells which express GLP-1R endogenously; host or cells: βTC6 cells
T1 sequence (O35659 22-463): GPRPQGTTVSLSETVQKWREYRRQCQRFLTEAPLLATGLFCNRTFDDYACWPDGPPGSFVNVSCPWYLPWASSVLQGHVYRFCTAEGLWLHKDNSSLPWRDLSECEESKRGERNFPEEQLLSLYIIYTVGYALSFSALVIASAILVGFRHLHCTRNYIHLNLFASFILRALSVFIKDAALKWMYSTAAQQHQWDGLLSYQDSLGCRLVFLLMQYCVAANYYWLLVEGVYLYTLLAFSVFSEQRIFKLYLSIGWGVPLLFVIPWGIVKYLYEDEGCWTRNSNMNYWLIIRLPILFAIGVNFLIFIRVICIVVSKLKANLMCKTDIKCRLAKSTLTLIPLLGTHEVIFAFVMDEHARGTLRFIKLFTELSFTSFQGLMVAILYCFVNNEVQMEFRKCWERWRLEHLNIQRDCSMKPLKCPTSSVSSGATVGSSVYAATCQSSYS
Assay: cAMP production in βTC6 cells expressing GLP-1R endogenously (Method C2)
Format: cell-based
Details: for Potency (%), Table S1: from EC50 in βTC6 cAMP assay, footnote: compare to GLP-1-NH2 (2); for EC50: read-out: EC50 (GLP-1R potency), Table S1

Row | Potency (%), Table S1 [%] | EC50 [µM] | Compound
1 | 8 |  | CC[C@H](C)[C@H](NC(=O)[C@H](Cc1ccccc1)NC(=O)[C@H](CCC(=O)O)NC(=O)[C@H](CCCCN)NC(=O)[C@H](C)NC(=O)[C@H](C)NC(=O)[C@H](CCC(N)=O)NC(=O)CNC(=O)[C@H](CCC(=O)O)NC(=O)[C@H](CC(C)C)NC(=O)[C@H](Cc1ccc(O)cc1)NC(=O)[C@H](CO)NC(=O)[C@H](CO)NC(=O)[C@@H](NC(=O)[C@H](CC(=O)O)NC(=O)[C@H](CO)NC(=O)[C@@H](NC(=O)[C@H](Cc1ccccc1)NC(=O)[C@@H](NC(=O)CNC(=O)[C@H](CCC(=O)O)NC(=O)NC[C@H](CO)NC(=O)[C@@H](N)Cc1c[nH]cn1)[C@@H](C)O)[C@@H](C)O)C(C)C)C(=O)N[C@@H](C)C(=O)N[C@@H](Cc1c[nH]c2ccccc12)C(=O)N[C@@H](CC(C)C)C(=O)N[C@H](C(=O)N[C@@H](CCCCN)C(=O)NCC(=O)N[C@@H](CCCNC(=N)N)C(=O)NCC(N)=O)C(C)C [S1]
2 | 0 | 0.065 | CC[C@H](C)[C@H](NC(=O)[C@H](Cc1ccccc1)NC(=O)[C@H](CCC(=O)O)NC(=O)[C@H](CCCCN)NC(=O)[C@H](C)NC(=O)[C@H](C)NC(=O)[C@H](CCC(N)=O)NC(=O)CNC(=O)[C@H](CCC(=O)O)NC(=O)[C@H](CC(C)C)NC(=O)[C@H](Cc1ccc(O)cc1)NC(=O)[C@H](CO)NC(=O)[C@H](CO)NC(=O)[C@@H](NC(=O)[C@H](CC(=O)O)NC(=O)[C@H](CO)NC(=O)[C@@H](NC(=O)[C@H](Cc1ccccc1)NC(=O)[C@@H](NC(=O)CNC(=O)[C@H](CCC(=O)O)NC(=O)NC[C@H](CS)NC(=O)[C@@H](N)Cc1c[nH]cn1)[C@@H](C)O)[C@@H](C)O)C(C)C)C(=O)N[C@@H](C)C(=O)N[C@@H](Cc1c[nH]c2ccccc12)C(=O)N[C@@H](CC(C)C)C(=O)N[C@H](C(=O)N[C@@H](CCCCN)C(=O)NCC(=O)N[C@@H](CCCNC(=N)N)C(=O)NCC(N)=O)C(C)C [S3]
3 | < 0.01 | > 10 | CC[C@H](C)[C@H](NC(=O)[C@H](Cc1ccccc1)NC(=O)[C@H](CCC(=O)O)NC(=O)[C@H](CCCCN)NC(=O)[C@H](C)NC(=O)[C@H](C)NC(=O)[C@H](CCC(N)=O)NC(=O)CNC(=O)[C@H](CCC(=O)O)NC(=O)[C@H](CC(C)C)NC(=O)[C@H](Cc1ccc(O)cc1)NC(=O)[C@H](CO)NC(=O)[C@H](CO)NC(=O)[C@@H](NC(=O)[C@H](CC(=O)O)NC(=O)[C@H](CO)NC(=O)[C@@H](NC(=O)[C@H](Cc1ccccc1)NC(=O)[C@@H](NC(=O)CNC(=O)[C@H](CCC(=O)O)NC(=O)NC[C@@H](NC(=O)[C@@H](N)Cc1c[nH]cn1)[C@@H](C)CC)[C@@H](C)O)[C@@H](C)O)C(C)C)C(=O)N[C@@H](C)C(=O)N[C@@H](Cc1c[nH]c2ccccc12)C(=O)N[C@@H](CC(C)C)C(=O)N[C@H](C(=O)N[C@@H](CCCCN)C(=O)NCC(=O)N[C@@H](CCCNC(=N)N)C(=O)NCC(N)=O)C(C)C [S6]
4 | < 0.01 | > 10 | CC[C@H](C)[C@H](NC(=O)[C@H](Cc1ccccc1)NC(=O)[C@H](CCC(=O)O)NC(=O)[C@H](CCCCN)NC(=O)[C@H](C)NC(=O)[C@H](C)NC(=O)[C@H](CCC(N)=O)NC(=O)CNC(=O)[C@H](CCC(=O)O)NC(=O)[C@H](CC(C)C)NC(=O)[C@H](Cc1ccc(O)cc1)NC(=O)[C@H](CO)NC(=O)[C@H](CO)NC(=O)[C@@H](NC(=O)[C@H](CC(=O)O)NC(=O)[C@H](CO)NC(=O)[C@@H](NC(=O)[C@H](Cc1ccccc1)NC(=O)[C@@H](NC(=O)CNC(=O)[C@H](CCC(=O)O)NC(=O)NC[C@H](CC(C)C)NC(=O)[C@@H](N)Cc1c[nH]cn1)[C@@H](C)O)[C@@H](C)O)C(C)C)C(=O)N[C@@H](C)C(=O)N[C@@H](Cc1c[nH]c2ccccc12)C(=O)N[C@@H](CC(C)C)C(=O)N[C@H](C(=O)N[C@@H](CCCCN)C(=O)NCC(=O)N[C@@H](CCCNC(=N)N)C(=O)NCC(N)=O)C(C)C [S7]

More lines, now with the values behind:

Row | Compound | Potency (%), Table S1 [%] | EC50 [µM]
5 | CC[C@H](C)[C@H](NC(=O)[C@H](Cc1ccccc1)NC(=O)[C@H](CCC(=O)O)NC(=O)[C@H](CCCCN)NC(=O)[C@H](C)NC(=O)[C@H](C)NC(=O)[C@H](CCC(N)=O)NC(=O)CNC(=O)[C@H](CCC(=O)O)NC(=O)[C@H](CC(C)C)NC(=O)[C@H](Cc1ccc(O)cc1)NC(=O)[C@H](CO)NC(=O)[C@H](CO)NC(=O)[C@@H](NC(=O)[C@H](CC(=O)O)NC(=O)[C@H](CO)NC(=O)[C@@H](NC(=O)[C@H](Cc1ccccc1)NC(=O)[C@@H](NC(=O)CNC(=O)[C@H](CCC(=O)O)NC(=O)NC[C@H](CCCNC(=N)N)NC(=O)[C@@H](N)Cc1c[nH]cn1)[C@@H](C)O)[C@@H](C)O)C(C)C)C(=O)N[C@@H](C)C(=O)N[C@@H](Cc1c[nH]c2ccccc12)C(=O)N[C@@H](CC(C)C)C(=O)N[C@H](C(=O)N[C@@H](CCCCN)C(=O)NCC(=O)N[C@@H](CCCNC(=N)N)C(=O)NCC(N)=O)C(C)C [S2] | < 0.01 | > 10
6 | CC[C@H](C)[C@H](NC(=O)[C@H](Cc1ccccc1)NC(=O)[C@H](CCC(=O)O)NC(=O)[C@H](CCCCN)NC(=O)[C@H](C)NC(=O)[C@H](C)NC(=O)[C@H](CCC(N)=O)NC(=O)CNC(=O)[C@H](CCC(=O)O)NC(=O)[C@H](CC(C)C)NC(=O)[C@H](Cc1ccc(O)cc1)NC(=O)[C@H](CO)NC(=O)[C@H](CO)NC(=O)[C@@H](NC(=O)[C@H](CC(=O)O)NC(=O)[C@H](CO)NC(=O)[C@@H](NC(=O)[C@H](Cc1ccccc1)NC(=O)[C@@H](NC(=O)CNC(=O)[C@H](CCC(=O)O)NC(=O)NC[C@H](CCC(N)=O)NC(=O)[C@@H](N)Cc1c[nH]cn1)[C@@H](C)O)[C@@H](C)O)C(C)C)C(=O)N[C@@H](C)C(=O)N[C@@H](Cc1c[nH]c2ccccc12)C(=O)N[C@@H](CC(C)C)C(=O)N[C@H](C(=O)N[C@@H](CCCCN)C(=O)NCC(=O)N[C@@H](CCCNC(=N)N)C(=O)NCC(N)=O)C(C)C [S4] | < 0.01 | > 10
7 | CC[C@H](C)[C@H](NC(=O)[C@H](Cc1ccccc1)NC(=O)[C@H](CCC(=O)O)NC(=O)[C@H](CCCCN)NC(=O)[C@H](C)NC(=O)[C@H](C)NC(=O)[C@H](CCC(N)=O)NC(=O)CNC(=O)[C@H](CCC(=O)O)NC(=O)[C@H](CC(C)C)NC(=O)[C@H](Cc1ccc(O)cc1)NC(=O)[C@H](CO)NC(=O)[C@H](CO)NC(=O)[C@@H](NC(=O)[C@H](CC(=O)O)NC(=O)[C@H](CO)NC(=O)[C@@H](NC(=O)[C@H](Cc1ccccc1)NC(=O)[C@@H](NC(=O)CNC(=O)[C@H](CCC(=O)O)NC(=O)NC[C@H](CCC(=O)O)NC(=O)[C@@H](N)Cc1c[nH]cn1)[C@@H](C)O)[C@@H](C)O)C(C)C)C(=O)N[C@@H](C)C(=O)N[C@@H](Cc1c[nH]c2ccccc12)C(=O)N[C@@H](CC(C)C)C(=O)N[C@H](C(=O)N[C@@H](CCCCN)C(=O)NCC(=O)N[C@@H](CCCNC(=N)N)C(=O)NCC(N)=O)C(C)C [S5] | < 0.01 | > 10
8 | CC[C@H](C)[C@H](NC(=O)[C@H](Cc1ccccc1)NC(=O)[C@H](CCC(=O)O)NC(=O)[C@H](CCCCN)NC(=O)[C@H](C)NC(=O)[C@H](C)NC(=O)[C@H](CCC(N)=O)NC(=O)CNC(=O)[C@H](CCC(=O)O)NC(=O)[C@H](CC(C)C)NC(=O)[C@H](Cc1ccc(O)cc1)NC(=O)[C@H](CO)NC(=O)[C@H](CO)NC(=O)[C@@H](NC(=O)[C@H](CC(=O)O)NC(=O)[C@H](CO)NC(=O)[C@@H](NC(=O)[C@H](Cc1ccccc1)NC(=O)[C@@H](NC(=O)CNC(=O)[C@H](CCC(=O)O)NC(=O)NC[C@H](CCCCN)NC(=O)[C@@H](N)Cc1c[nH]cn1)[C@@H](C)O)[C@@H](C)O)C(C)C)C(=O)N[C@@H](C)C(=O)N[C@@H](Cc1c[nH]c2ccccc12)C(=O)N[C@@H](CC(C)C)C(=O)N[C@H](C(=O)N[C@@H](CCCCN)C(=O)NCC(=O)N[C@@H](CCCNC(=N)N)C(=O)NCC(N)=O)C(C)C [S8] | < 0.01 | > 10
9 | CC[C@H](C)[C@H](NC(=O)[C@H](Cc1ccccc1)NC(=O)[C@H](CCC(=O)O)NC(=O)[C@H](CCCCN)NC(=O)[C@H](C)NC(=O)[C@H](C)NC(=O)[C@H](CCC(N)=O)NC(=O)CNC(=O)[C@H](CCC(=O)O)NC(=O)[C@H](CC(C)C)NC(=O)[C@H](Cc1ccc(O)cc1)NC(=O)[C@H](CO)NC(=O)[C@H](CO)NC(=O)[C@@H](NC(=O)[C@H](CC(=O)O)NC(=O)[C@H](CO)NC(=O)[C@@H](NC(=O)[C@H](Cc1ccccc1)NC(=O)[C@@H](NC(=O)CNC(=O)[C@H](CCC(=O)O)NC(=O)NC[C@H](Cc1ccccc1)NC(=O)[C@@H](N)Cc1c[nH]cn1)[C@@H](C)O)[C@@H](C)O)C(C)C)C(=O)N[C@@H](C)C(=O)N[C@@H](Cc1c[nH]c2ccccc12)C(=O)N[C@@H](CC(C)C)C(=O)N[C@H](C(=O)N[C@@H](CCCCN)C(=O)NCC(=O)N[C@@H](CCCNC(=N)N)C(=O)NCC(N)=O)C(C)C [S9] | 21 | 0.0005
10 | CC[C@H](C)[C@H](NC(=O)[C@H](Cc1ccccc1)NC(=O)[C@H](CCC(=O)O)NC(=O)[C@H](CCCCN)NC(=O)[C@H](C)NC(=O)[C@H](C)NC(=O)[C@H](CCC(N)=O)NC(=O)CNC(=O)[C@H](CCC(=O)O)NC(=O)[C@H](CC(C)C)NC(=O)[C@H](Cc1ccc(O)cc1)NC(=O)[C@H](CO)NC(=O)[C@H](CO)NC(=O)[C@@H](NC(=O)[C@H](CC(=O)O)NC(=O)[C@H](CO)NC(=O)[C@@H](NC(=O)[C@H](Cc1ccccc1)NC(=O)[C@@H](NC(=O)CNC(=O)[C@H](CCC(=O)O)NC(=O)NC[C@@H](NC(=O)[C@@H](N)Cc1c[nH]cn1)[C@@H](C)O)[C@@H](C)O)[C@@H](C)O)C(C)C)C(=O)N[C@@H](C)C(=O)N[C@@H](Cc1c[nH]c2ccccc12)C(=O)N[C@@H](CC(C)C)C(=O)N[C@H](C(=O)N[C@@H](CCCCN)C(=O)NCC(=O)N[C@@H](CCCNC(=N)N)C(=O)NCC(N)=O)C(C)C [S10] | 3 | 0.0033
